One molecule from patent US10759768B2, “Prophylactic or therapeutic agent for autism spectrum disorder” (priority 2016, dated 2020) can be followed below.

Entries after “also recorded” stand apart in the source; their conditions may differ.

This test concerns rat valproic acid-exposed autism model. The test can be described thus: Sociability test (3 chamber) in rat embryonic valproic acid-exposed autism model. Conditions: compound A 0.2 or 1 mg/kg orally once a day for 14 days from 3 weeks of age; male Sprague-Dawley offspring exposed to VPA 500 mg/kg i.p.; test at 5 weeks of age; FIG. 1. The format is in vivo. The protocol: Rat embryonic valproic acid-exposed autism model was used for the test. Sodium valproate (VPA) 500 mg/kg (mpk) was intraperitoneally administered to Sprague-Dawley pregnant rats on the 12.5th day in the embryonic stage. The offspring was weaned on the 21st day after birth, and only the male rat was used for the experiment. Compound A (0.2 or 1 mg/kg) was orally administered once a day at 18 o'clock for 14 days from 3 weeks of age after weaning and a behavioral test was conducted at 5 weeks of age. As unknown rat (Stranger rat), a purchased male rat of the same strain and the same week of age was used with no contact with the rat to be tested (test rat) until the day of the test.
In the experiment, a black plastic 3 chamber experimental apparatus (90×60×34 cm, each chamber 30×60×34 cm) was used. […]
On the day of the test, the rats to be tested and unknown rats were acclimated to the test environment for 1 hour or more and then the test was started. […] The sniffing to each cylinder (action of sniffing an object or an animal) was visually measured for 10 min. A sniffing index, which is an indicator of interest to other animal, was calculated by the following formula based on the sniffing time to each cylinder for 10 min. […]

For `CC(=O)NCC[C@@H]1CCc2ccc3nc(C)oc3c21` [compound A, (S)—N-[2-(2-methyl-7,8-dihydro-6H-indeno[5,4-d][1,3]oxazol-8-yl)ethyl]acetamide], the “effect on social disorder / social performance (Sniffing index, Sniffing time to object)” value is given as “significant (# P≤0.025) improvement effect on social performance; also recorded: showed effectiveness on the social disorder”.
